Where a SMILES comes first, the peptide text is derived from it.
Assays:
[1] = Half life of compound in ICE assay buffer (1 mM dithiothreitol) at 25 degree C; assay type: ADME; conditions: ICE assay buffer with 1 mM dithiothreitol
[2] = Half life of compound in ICE assay buffer (1 mM dithiothreitol) at 25 degree C (98% intact after 120 h); assay type: ADME; conditions: ICE assay buffer with 1 mM dithiothreitol
Caspase-1 (Homo sapiens) = target: T1, Caspase-1 (Homo sapiens) (UniProt P29466); assay: Compound was tested for inhibition of IL-1 beta converting enzyme by measuring second order rate of inactivation
T1 sequence (whole entry): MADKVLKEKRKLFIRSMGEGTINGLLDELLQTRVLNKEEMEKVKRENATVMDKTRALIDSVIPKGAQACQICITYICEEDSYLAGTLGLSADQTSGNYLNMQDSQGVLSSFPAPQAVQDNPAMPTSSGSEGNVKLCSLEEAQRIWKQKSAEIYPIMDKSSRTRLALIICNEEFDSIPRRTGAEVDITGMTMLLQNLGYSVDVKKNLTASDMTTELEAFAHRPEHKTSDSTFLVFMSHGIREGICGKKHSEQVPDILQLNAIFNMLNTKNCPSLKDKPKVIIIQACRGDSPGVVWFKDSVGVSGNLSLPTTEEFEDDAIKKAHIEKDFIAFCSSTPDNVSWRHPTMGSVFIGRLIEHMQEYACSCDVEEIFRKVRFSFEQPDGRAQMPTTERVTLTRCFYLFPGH

[3] = Half life of compound in ICE assay buffer (1 mM glutathione) at […] degree C; assay type: ADME; conditions: ICE assay buffer with 1 mM glutathione
[4] = Half life of compound in ICE assay buffer (1 mM dithiothreitol) at 25 degree C (89% intact after 120 h); assay type: ADME; conditions: ICE assay buffer with 1 mM dithiothreitol

SMILES | second-order inactivation rate constant (kobs/[I]) (Caspase-1 (Homo sapiens)) | half-life [3] | further results
CC(C)[C@H](NC(=O)OCc1ccccc1)C(=O)N[C@@H](C)C(=O)N[C@@H](CC(=O)O)C(=O)CCl (HELM PEPTIDE1{[O=C(OCc1ccccc1)[*:2]].V.A.D.[ClC[*:1]]}$$$$V2.0) | – | – | half-life [1]: 0.25 h
CC(C)[C@H](NC(=O)OCc1ccccc1)C(=O)N[C@@H](C)C(=O)NN(CC(=O)O)C(=O)COP(=O)(c1ccccc1)c1ccccc1 | 19400 M⁻¹ s⁻¹ | 130 h | half-life [2]: > 120 h
CC(C)[C@H](NC(=O)OCc1ccccc1)C(=O)N[C@@H](C)C(=O)NN(CC(=O)O)C(=O)COC(=O)c1c(Cl)cccc1Cl | 700 M⁻¹ s⁻¹ | – | –
CC(C)[C@H](NC(=O)OCc1ccccc1)C(=O)N[C@@H](C)C(=O)NN(CC(=O)O)C(=O)COc1cc(C(F)(F)F)nn1-c1ccccc1 | 470 M⁻¹ s⁻¹ | – | –
CC(C)[C@H](NC(=O)OCc1ccccc1)C(=O)N[C@@H](C)C(=O)NC(CC(=O)O)C(=O)COC1=C(Cc2ccccc2)C(=O)OC1 (some centres undefined) | 290000 M⁻¹ s⁻¹ | – | –
CC(C)[C@H](NC(=O)OCc1ccccc1)C(=O)N[C@@H](C)C(=O)N[C@@H](CC(=O)O)C(=O)COP(=O)(c1ccccc1)c1ccccc1 | 118000 M⁻¹ s⁻¹ | 0.96 h | –
CC(C)[C@H](NC(=O)OCc1ccccc1)C(=O)N[C@@H](C)C(=O)NN(CC(=O)O)C(=O)CBr | 1640 M⁻¹ s⁻¹ | – | –
CC(C)[C@H](NC(=O)OCc1ccccc1)C(=O)N[C@@H](C)C(=O)NN(CC(=O)O)C(=O)CCl | 27300 M⁻¹ s⁻¹ | 3.5 h | half-life [4]: > 120 h
CC(C)[C@H](NC(=O)OCc1ccccc1)C(=O)N[C@@H](C)C(=O)NN(CC(=O)O)C(=O)COC1=C(Cc2ccccc2)C(=O)OC1 | 120 M⁻¹ s⁻¹ | – | –

Source: ChEMBL document CHEMBL1128159, “Synthesis and evaluation of diacylhydrazines as inhibitors of the interleukin-1 converting enzyme (ICE)” (Bioorg Med Chem Lett, 1995)
